# In patent EP4624457A1, “I[…] DERIVATIVES, I[…] NEURODEGENERATIVE DISEASES” (Centre National de la Recherche Scientifique, priority 2024, dated 2025):
# Several values for one entry are separate records, joined by “and”; a condition that tells them apart may be missing. Equal entries are not always repeated. Where two headings read alike, the source gives them in different places.
# Target: T1, human α7 nAChR subtype (Homo sapiens, UniProt P36544)
# T1 construct: expressed in transfected cells; host or cells: Xenopus laevis oocytes injected with mRNA
# T1 sequence (P36544 23-502): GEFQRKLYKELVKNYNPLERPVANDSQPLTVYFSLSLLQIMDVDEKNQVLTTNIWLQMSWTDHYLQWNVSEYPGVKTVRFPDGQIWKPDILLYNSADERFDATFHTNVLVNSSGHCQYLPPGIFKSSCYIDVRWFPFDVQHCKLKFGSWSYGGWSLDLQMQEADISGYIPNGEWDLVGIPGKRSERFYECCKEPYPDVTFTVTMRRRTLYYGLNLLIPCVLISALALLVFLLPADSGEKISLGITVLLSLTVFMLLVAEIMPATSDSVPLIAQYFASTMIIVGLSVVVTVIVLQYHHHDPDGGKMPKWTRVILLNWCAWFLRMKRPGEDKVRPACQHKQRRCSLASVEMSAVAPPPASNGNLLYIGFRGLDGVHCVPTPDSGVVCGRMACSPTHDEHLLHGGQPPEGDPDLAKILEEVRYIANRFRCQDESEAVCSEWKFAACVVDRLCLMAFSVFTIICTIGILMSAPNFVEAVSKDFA
# Assay: Two-electrode voltage clamp electrophysiology on Xenopus laevis oocytes expressing the α7 nAChR
# Format: cell-based
# Conditions: for IC50: antagonistic activity, TEVC, value (95% CI), 100 µM ACh, 45 s preincubation, Figures 5 and 7
# Excerpt: The emerging cyclic imines toxins (CiTXs) of global distribution across coastal environments that are produced by dinoflagellates move fast up the human food chain through shellfish. The CiTX family includes 44 compounds: 7 gymnodimines (A-E, 12-methylgymnodimine and 16-desmethyl gymnodimine D), 16 spirolides (A-D, G-I, 13-desmethyl spirolide-C, 27-Hydroxy-13-desmethyl spirolide-C, 13,19-didesmethyl spirolide-C, 20-hydroxy-13,19-didesmethyl spirolide- C, 27-hydroxy-13,19-spirolide-C, 27-Oxo-13,19-didesmethyl spirolide-C, 13-desmethyl spirolide-D, 20-hydroxy-13,19-didesmethyl spirolide-D and 20-methyl spirolide-G), 8 pinnatoxins (A-H), 3 pteriatoxins (A-C), 6 prorocentrolides (A-B, 4- hydroxyprorocentrolide, 9,51-dihydro prorocentrolide, 30-sulfate prorocentrolide and 14-O-acetyl-4-hydroxyprorocentrolide), 1 spiroprorocentrimine, 2 portimines (A and B), and 1 kabirimine, (Aráoz et al. (2020) Cyclic imine toxins survey in coastal european shellfish samples: Bioaccumulation and mode of action of 28-O-palmitoyl ester of pinnatoxin-G. First report of portimine-A bioaccumulation. Harmful Algae, 98 [1]). The spiroimine moiety is the major feature characterizing cyclic imine toxins. The exception to this rule is prorocentrolides in which a hexahydroisoquinoline group replaces the spiroimine motif, (Torigoe et al. (1988) Prorocentrolide, a toxic nitrogenous macrocycle from a marine dinoflagellate, Prorocentrum-lima. Journal of the American Chemical Society, 110:7876-7877 [2]). Portimines display a 5-membered cyclic imine ring; gymnodimines, prorocentrolides, spiroprorocentrimines and kabirimine present a 6-membered imine ring, while spirolides, pinnatoxins and pteriatoxins display a 7-membered imine ring. Cyclic imine toxins are fast acting neurotoxins that, when administered intraperitoneally or by gavage at lethal doses, kill mice by respiratory arrest within minutes following blockade of neuromuscular nicotinic acetylcholine receptors (nAChR). The mode of action of several cyclic imines on nAChRs has been characterized, namely: gymnodimine-A, 13- desmethyl spirolide- C, 13,19-didesmethyl spirolide-C, 20-methyl spirolide-G, pinnatoxin-A, pinnatoxin-G, prorocentrolide-A and portimine, (Lamoise et al. (2017) Physico-chemical and functional characterization of portimine purified from Vulcanodinium rugosum strain IFR-VRU-01. In "Marine and Fresh-Water Harmful Algae". Proceedings of the 17th International Conference on Harmful Algae (Proença, L.A.O. and Hallegraeff, G. eds) pp. 126-129 ISSHA and IOC/UNESCO, Florianapolis; Molgó et al. (2017) Cyclic imine toxins from dinoflagellates: a growing family of potent antagonists of the nicotinic acetylcholine receptors. Journal of Neurochemistry, 142:41-51 [4]). They are potent antagonists of muscular and neuronal nicotinic acetylcholine receptors with pinnatoxin-A displaying picomolar affinities towards the α7 nicotinic acetylcholine receptor subtype (Aráoz et al. (2011) Total synthesis of pinnatoxins A and G and revision of the mode of action of pinnatoxin A. Journal of the American Chemical Society 133(27):10499-10511 [5]). In contrast, prorocentrolide and portimine show micromolar affinities towards the α7 nicotinic acetylcholine receptor subtype (Lamoise et al. (2017), Stivala et al. (2015) Synthesis and biology of cyclic imine toxins, an emerging class of potent, globally distributed marine toxins. Natural Product Reports, 32(3):411-435 [6]) (Table1). Table 1. Antagonistic activity of CiTX (Two-Electrodes Voltage Clamp electrophysiology).
# • Figure 1 represents the chemical structure of ingrilimine according to compound (Illa) formula. • Figure 2 represents the cytotoxic activity of ingrilimine. A2780 ovarian and HT29 colorectal carcinoma cells were grown in RPMI 1640 supplemented with 10% fetal calf serum (FCS) and 1% glutamine. […]
Compound,"peak amplitude relative to the peak amplitude evoked by 100 µM ACh (agonist activity, 10 µM ingrilimine) [%]","behaviour at micromolar concentrations (micromolar concentrations, antagonist at nanomolar concentrations)",IC50 (nAChR subtype (nM; 95% CI) α7 (human)),times more potent than portimine against the human α7 nAChR subtype (ratio of IC50 values),IC50 (read-out: nAChR subtype (nM; 95% CI) α7 (human)) [nM]
"C=CC1=C[C@@H]2C[C@@H](O)[C@@H](O)/C(C)=C/C/C(C)=C/CCC3=NCCC[C@]32CC1 [Ingrilimine, ingrilimine]",-25,behaves as an agonist,2.3 nM and 2.29 nM,~ 10 000 times,
C=CC1=C[C@@H]2[C@@H]3O[C@]4(CC[C@H](O4)[C@@H](C)C[C@@H](O)C3=O)C[C@H](O)C3=NCC[C@@]32CC1 [Portimine-A],,,,,21200
